Source: paper PMC7367283, “A PIP2 substitute mediates voltage sensor-pore coupling in KCNQ activation” (Communications Biology, 2020)

Target: T1, Kir1.1 (Homo sapiens, UniProt P48048)
T1 sequence (P48048 1-391): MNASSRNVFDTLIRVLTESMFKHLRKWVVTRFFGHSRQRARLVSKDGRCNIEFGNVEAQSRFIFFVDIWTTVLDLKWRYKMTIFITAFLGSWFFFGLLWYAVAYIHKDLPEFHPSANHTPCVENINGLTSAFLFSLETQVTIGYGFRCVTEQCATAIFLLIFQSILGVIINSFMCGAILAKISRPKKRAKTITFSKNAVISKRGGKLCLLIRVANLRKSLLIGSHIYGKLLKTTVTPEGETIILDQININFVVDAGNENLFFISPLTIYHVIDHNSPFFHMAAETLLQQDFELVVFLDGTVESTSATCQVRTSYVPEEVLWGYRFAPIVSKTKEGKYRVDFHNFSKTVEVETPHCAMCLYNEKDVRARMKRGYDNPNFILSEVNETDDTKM
Assay: Two-electrode voltage clamp of Kir1.1 in Xenopus oocytes
Type: cell-based
Conditions: 10 µM CP1; for Current (Fig. 6b): mean
Excerpt: Since CP1 has a similar effect to PIP2 in mediating VSD-pore coupling in KCNQ channels, we tested if CP1 has effects on other ion channels that are also sensitive to PIP2 or are voltage activated and share general structural features of the VSD and the pore with KCNQ. […] On the other hand, NaV1.5 and KV4.2 are voltage-gated ion channels.
Fig. 6 Effects of CP1 on other ion channels expressed in Xenopus oocytes. a Currents of Kir1.1, CaV1.2, NaV1.5, hERG, and KV4.2 before and after application of 10 µM CP1, respectively. The voltages for holding, test, and returning pulses were Kir1.1, 0 mV, −100 to +60 mV, 0; CaV1.2, −100 mV, −100 to +60, −100 mV; NaV1.5, −100, −120 to +40 mV, −120 mV; hERG, −80 mV, −90 to +60 mV, −60 mV; KV4.2, −80 mV, −100 mV to +80 mV, −40 mV; HCN4, −30 mV, −30 to −140 mV, −120 mV. b Current–voltage relations of Kir1.1 channel in the absence or presence of 10 µM CP1 (n = 7). c–g G–V relations of indicated channels with and without 10 µM CP1. The ΔV1/2 of G–V relations (mV) are CaV1.2, 3.38 ± 0.71 mV (c); NaV1.5, −2.26 ± 0.95 mV (d); hERG, 6.85 ± 1.81 mV (e); KV 4.2, −2.26 ± 2.88 mV (f); HCN4, 17.13 ± 1.59 mV (g).
Complementary DNA (cDNA) encoding human KCNQ1 (UniProtKB/Swiss‐Prot under accession no. P51787), KCNQ2 (O43526), KCNQ3 (O43525), KCNE1 (P15382), Kir1.1 (P48048), hERG (Q12809), KV4.2 (Q63881), NaV1.5 (Q14524), NaV β1 (Q07699), CaV1.2 (Q13936), CaV β1a (Q02641), CaV α2/δ1 (P54289), and HCN4 (Q9Y3Q4) were subcloned into oocyte expression vectors, respectively. Site-directed mutations of the KCNQ1 channel were all produced by overlap extension polymerase chain reaction (PCR) with high-fidelity Pfu polymerase (Stratagene, CA). The presence of the desired mutation was verified by sequencing the PCR-amplified regions. All the primer sequences used in this study are available in Supplementary Table 1. The complementary RNA (cRNA) of all these channels and mutations was transcribed in vitro with the T3, T7, or SP6 polymerase mMessage mMachine kit (Invitrogen, Thermo Fisher Scientific, MO).
The whole-oocyte ionic currents were recorded with a GeneClamp 500B amplifier (Axon Instruments, CA) or iTEV90 amplifier (HEKA, Germany) and then sampled at 1 kHz and low-pass-filtered at 2 kHz. The Patchmaster software (HEKA, Germany) was used to acquire data. The Kir1.1 current was recorded with a high K^+ bath solution containing (in mM) 96 KCl, 4 NaCl, 1 CaCl2, 2 MgCl2, and 10 HEPES, pH 7.3–7.4. The HCN4 current was recorded in ND66 solution containing (in mM) 66 NaCl, 32 KCl, 1.8 CaCl2, 1 MgCl2, and 5 HEPES, pH 7.6. All the other potassium channels were recorded in ND96 solution. The currents of CaV1.2 channel were recorded in 40 mM Ba^2+ bath solution containing (in mM) 40 Ba(OH)2, 50 TEA-OH, 2 KOH, and 5 HEPES, adjusted to pH 7.4 with methanesulfonic acid. CP1 (DISODIUM 5-BROMO-2-[9-CHLORO-3-(SULFONATOOXY) NAPHTHO [1,2-B] THIEN-2-YL]-1H-INDOL-3-YL SULFATE, Sigma-Aldrich, MO) and Chromanol 293B (Sigma-Aldrich, MO) were dissolved in bath solutions. All the chemicals were purchased from Sigma-Aldrich. To measure the I–V relations of the Kir1.1 channel, the test voltage was set from −100 to +60 mV for 1 s with 20-mV increments. The test pulses were stepped from a holding potential of 0 mV and then stepped back to 0 mV. The HCN4 currents were recorded by a test pulse between −30 and −140 mV in 10-mV step from a holding potential of −30 mV. For all the other potassium channels and CaV1.2 channel, the holding potential was −80 or −100 mV, and the test pulse was applied with 10-mV increment, which was followed with a repolarization pulse at −40 mV before returning to the holding potential. The durations of test and the repolarization pulse vary for different channels to allow the activation and deactivation of the channel to reach their steady states.

- effect on currents of Kir1.1: little effect
- Current (Fig. 6b) (voltage 0 mV): -0.8738 µA
- Current (Fig. 6b) (voltage 20 mV): 8.1285 µA
- Current (Fig. 6b) (voltage 40 mV): 17.0203 µA
- Current (Fig. 6b) (voltage 60 mV): 25.9074 µA
- Current (Fig. 6b) (voltage -20 mV): -9.7186 µA
- Current (Fig. 6b) (voltage -40 mV): -18.5616 µA
- Current (Fig. 6b) (voltage -60 mV): -27.3089 µA
- Current (Fig. 6b) (voltage -80 mV): -36.1588 µA
- Current (Fig. 6b) (voltage -100 mV): -44.9245 µA
Compound: O=S(=O)([O-])Oc1c(-c2sc3c(ccc4cccc(Cl)c43)c2OS(=O)(=O)[O-])[nH]c2ccc(Br)cc12.[Na+].[Na+] [CP1, DISODIUM 5-BROMO-2-[9-CHLORO-3-(SULFONATOOXY) NAPHTHO [1,2-B] THIEN-2-YL]-1H-INDOL-3-YL SULFATE]
